Measurements from patent US12569485B2, “SMARCA inhibitors and uses thereof” (Kymera Therapeutics, Inc., priority 2019, dated 2026).
Counter-ions that a name gives are not always drawn.

What follows are molecules tested against T1, SMARCA2 (Homo sapiens, UniProt P51531) (assay: SMARCA2 HTRF assay). Details: His-tagged SMARCA2-17, average, read-out: SMARCA2 binding Human HTRF: Average IC50.
T1 construct: fused on or other part: His tag (6His), detected by the anti-6His terbium cryptate antibody
Experimental: Sample handling: 1× Epigenetics Buffer is prepared according to manufacturer's instructions. 32 nM SMARCA2-17 (4×) is prepared with Epigenetics Buffer. 4×Tb working solution is prepared by diluting Mab Anti 6His Tb cryptate Gold in PPI-Terbium Detection buffer to 0.21 ng/μ1 (100× dilution from stock). SMARCA2-mAb-Tb working solution is prepared by mixing equal volume of 32 nM SMARCA2 with Tb working solution. A half-hour timer is started. In a 96-well plate, serial dilution of compound DMSO solutions is prepared. […] of Epigenetics Buffer is placed to a second 96-well plate. 1 μl of the 100× compound DMSO solution is transferred to the second 96-well plate to make 4× compound working solution. 5 μl/well of 4× compound working solution is added into the 384-well plate and mixed well. […] of SMARCA2-mAb-Tb working solution is added into 384-well plate. The above mixtures are incubated at room temperature for 30 min. Data is collected and processed on EnVision. 520 nm/495 nm readouts ratio are calculated from raw data.
The letter codes for SMARCA2 average IC50 (μM) include: A (<1 μM), B (1-50 μM), C (51-200 μM), and D (>200 μM).

T1 sequence (P51531 whole entry, the tested form may be a part): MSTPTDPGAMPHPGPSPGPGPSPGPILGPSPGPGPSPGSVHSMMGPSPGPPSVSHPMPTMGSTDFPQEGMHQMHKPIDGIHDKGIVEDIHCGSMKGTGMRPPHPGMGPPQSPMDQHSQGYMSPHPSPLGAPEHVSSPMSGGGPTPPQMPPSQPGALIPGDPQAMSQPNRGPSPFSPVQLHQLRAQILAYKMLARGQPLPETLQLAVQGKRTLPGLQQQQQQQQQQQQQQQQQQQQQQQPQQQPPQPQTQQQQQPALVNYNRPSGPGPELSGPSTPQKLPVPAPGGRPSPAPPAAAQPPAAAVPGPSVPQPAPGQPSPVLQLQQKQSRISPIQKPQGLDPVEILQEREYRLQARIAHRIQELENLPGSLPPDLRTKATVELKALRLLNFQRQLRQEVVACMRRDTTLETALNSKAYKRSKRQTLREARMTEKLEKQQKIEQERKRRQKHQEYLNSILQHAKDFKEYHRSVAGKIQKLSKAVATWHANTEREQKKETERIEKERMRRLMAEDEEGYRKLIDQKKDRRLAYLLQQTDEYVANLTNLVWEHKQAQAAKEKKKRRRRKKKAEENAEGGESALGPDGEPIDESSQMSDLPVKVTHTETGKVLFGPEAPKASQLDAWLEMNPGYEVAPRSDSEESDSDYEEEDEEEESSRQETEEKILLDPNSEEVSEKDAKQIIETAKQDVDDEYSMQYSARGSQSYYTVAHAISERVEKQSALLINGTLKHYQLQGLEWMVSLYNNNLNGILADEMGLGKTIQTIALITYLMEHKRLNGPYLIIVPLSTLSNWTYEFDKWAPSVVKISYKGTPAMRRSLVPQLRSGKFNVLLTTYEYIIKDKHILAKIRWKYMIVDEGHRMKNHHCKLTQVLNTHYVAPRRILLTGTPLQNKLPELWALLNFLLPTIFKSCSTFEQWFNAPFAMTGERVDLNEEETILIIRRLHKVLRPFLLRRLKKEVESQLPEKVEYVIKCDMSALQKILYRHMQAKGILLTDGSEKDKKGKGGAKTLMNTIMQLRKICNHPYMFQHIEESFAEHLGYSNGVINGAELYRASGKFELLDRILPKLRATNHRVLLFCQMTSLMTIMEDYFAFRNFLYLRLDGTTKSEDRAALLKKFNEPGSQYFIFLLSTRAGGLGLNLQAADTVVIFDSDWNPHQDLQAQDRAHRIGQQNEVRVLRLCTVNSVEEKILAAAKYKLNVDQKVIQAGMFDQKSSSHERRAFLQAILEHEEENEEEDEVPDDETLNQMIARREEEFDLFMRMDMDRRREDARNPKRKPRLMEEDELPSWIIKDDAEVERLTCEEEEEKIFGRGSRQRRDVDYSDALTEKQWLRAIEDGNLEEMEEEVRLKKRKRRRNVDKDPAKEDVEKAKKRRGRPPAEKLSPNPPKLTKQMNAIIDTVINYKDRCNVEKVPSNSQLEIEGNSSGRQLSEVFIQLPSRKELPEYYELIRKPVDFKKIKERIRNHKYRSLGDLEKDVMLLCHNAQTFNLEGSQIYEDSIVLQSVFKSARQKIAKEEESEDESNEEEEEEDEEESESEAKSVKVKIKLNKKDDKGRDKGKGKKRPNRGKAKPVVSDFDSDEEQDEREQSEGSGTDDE

`C[C@H]1c2c([nH]c3nnc(-c4ccccc4O)cc23)CCN1c1ncccn1` [I-118, (S)-2-(5-methyl-6-(pyrimidin-2-yl)-6,7,8,9-tetrahydro-5H-pyrido[3′,4′:4,5]pyrrolo[2,3-c]pyridazin-3-yl)phenol] and `C[C@@H]1c2c([nH]c3nnc(-c4ccccc4O)cc23)CCN1c1ncccn1` [I-116, (R)-2-(5-methyl-6-(pyrimidin-2-yl)-6,7,8,9-tetrahydro-5H-pyrido[3′,4′:4,5]pyrrolo[2,3-c]pyridazin-3-yl)phenol] cannot be ordered by IC50: < 1 µM for the first, < 1 µM for the second.

`Nc1ncc(N2CCNC2=O)cc1N1CCNCC1` [I-71, 1-(6-amino-5-piperazin-1-yl-3-pyridyl)imidazolidin-2-one] and `Nc1ncc(N2CCNCC2=O)cc1N1CCNCC1` [I-73, 1-(6-amino-5-piperazin-1-yl-3-pyridyl)piperazin-2-one] cannot be ordered by IC50: > 200 µM for the first, > 200 µM for the second.

Compared with `COCCNc1nnc(-c2ccccc2O)cc1N1CCNCC1` [I-101, 2-[6-(2-methoxyethylamino)-5-piperazin-1-yl-pyridazin-3-yl]phenol], `CC(=O)Nc1nnc(-c2ccccc2O)cc1N1CCNCC1` [I-102, N-[6-(2-hydroxyphenyl)-4-piperazin-1-yl-pyridazin-3-yl]acetamide] is lower in IC50: > 200 µM for the first, 51 to 200 µM for the second. The second is the more potent here.

`O=C1Nc2nnc(-c3ccccc3O)cc2C12CCN(Cc1ccccc1)CC2` [I-121, 1′-benzyl-3-(2-hydroxyphenyl)spiro[7H-pyrrolo[2,3-c]pyridazine-5,4′-piperidine]-6-one] and `O=C1Nc2nnc(-c3ccccc3O)cc2C12CCN(c1ccccc1)CC2` [I-64, 3-(2-hydroxyphenyl)-1′-phenyl-spiro [7H-pyrrolo[2,3-c]pyridazine-5,4′-piperidine]-6-one] fall in the same range of IC50: 1 to 50 µM for the first, 1 to 50 µM for the second.

`C[C@H]1c2c([nH]c3nnc(-c4ccccc4O)cc23)CCN1c1ncc(C2CCNCC2)cn1` [I-113, (S)-2-(5-methyl-6-(5-(piperidin-4-yl)pyrimidin-2-yl)-6,7,8,9-tetrahydro-5H-pyrido[3′,4′:4,5]pyrrolo[2,3-c]pyridazin-3-yl)phenol] and `C[C@@H]1c2c([nH]c3nnc(-c4ccccc4O)cc23)CCN1c1ncc(C2CCNCC2)cn1` [I-112, (R)-2-(5-methyl-6-(5-(piperidin-4-yl)pyrimidin-2-yl)-6,7,8,9-tetrahydro-5H-pyrido[3′,4′:4,5]pyrrolo[2,3-c]pyridazin-3-yl)phenol] cannot be ordered by IC50: < 1 µM for the first, < 1 µM for the second.

Compared with `O=C1Nc2nnc(-c3ccccc3O)cc2C12CCNCC2` [I-7, 3-(2-hydroxyphenyl)spiro[7H-pyrrolo[2,3-c]pyridazine-5,4′-piperidine]-6-one], `O=c1[nH]c2nnc(-c3ccccc3O)cc2c2c1CCNC2` [I-1, 9-(2-hydroxyphenyl)-1,2,3,4-tetrahydropyridazino[3,4-c][2,6]naphthyridin-5(6H)-one hydrochloride] is lower in IC50: > 200 µM for the first, 1 to 50 µM for the second.

First: Oc1ccccc1-c1cc2c(cc3n2CCN(c2ncccn2)C3)nn1 [I-123, 2-(8-(pyrimidin-2-yl)-6,7,8,9-tetrahydropyrazino[1′,2′:1,5]pyrrolo[3,2-c]pyridazin-3-yl)phenol]
Second: Oc1ccccc1-c1cc2c(nn1)NC[C@H]1CN(c3ncccn3)CCN21 [I-107, (S)-2-(8-(pyrimidin-2-yl)-6,6a,7,8,9,10-hexahydro-5H-pyrazino[1′,2′:4,5]pyrazino[2,3-c]pyridazin-2-yl)phenol]
The IC50 of the first is higher: 1 to 50 µM for the first, < 1 µM for the second. The second is the more potent here.

`CC(C)(C)OC(=O)N1CC=C(c2cc3c(=O)[nH]c4nnc(-c5ccccc5O)cc4n3c2)CC1` [I-124, tert-butyl 4-(2-(2-hydroxyphenyl)-6-oxo-5,6-dihydropyrrolo[1′,2′:4,5]pyrazino[2,3-c]pyridazin-8-yl)-5,6-dihydropyridine-1(2H)-carboxylate] and `O=c1[nH]c2nnc(-c3ccccc3O)cc2n2cc(C3CCNCC3)cc12` [I-125, 2-(2-hydroxyphenyl)-8-(piperidin-4-yl)pyrrolo[1′,2′:4,5]pyrazino[2,3-c]pyridazin-6(5H)-one] fall in the same range of IC50: 1 to 50 µM for the first, 1 to 50 µM for the second.

`O=c1[nH]c2nnc(-c3ccccc3O)cc2c2c1CNCC2` [I-2, 2-(2-hydroxyphenyl)-7,8,9,10-tetrahydro-5H-pyridazino[3,4-c][2,7]naphthyridin-6-one] and `O=C1NCCc2[nH]c3nnc(-c4ccccc4O)cc3c21` [I-119, 3-(2-hydroxyphenyl)-6,7,8,9-tetrahydro-5H-pyrido[3′,4′:4,5]pyrrolo[2,3-c]pyridazin-5-one] fall in the same range of IC50: 1 to 50 µM for the first, 1 to 50 µM for the second.

`C[C@@H]1c2c([nH]c3nnc(-c4ccccc4O)cc23)CCN1c1nccc(C2CCNCC2)n1` [I-110, (R)-2-(5-methyl-6-(4-(piperidin-4-yl)pyrimidin-2-yl)-6,7,8,9-tetrahydro-5H-pyrido[3′,4′:4,5]pyrrolo[2,3-c]pyridazin-3-yl)phenol] and `C[C@H]1c2c([nH]c3nnc(-c4ccccc4O)cc23)CCN1c1nccc(C2CCNCC2)n1` [I-111, (S)-2-(5-methyl-6-(4-(piperidin-4-yl)pyrimidin-2-yl)-6,7,8,9-tetrahydro-5H-pyrido[3′,4′:4,5]pyrrolo[2,3-c]pyridazin-3-yl)phenol] cannot be ordered by IC50: < 1 µM for the first, < 1 µM for the second.

First: Oc1ccccc1-c1cc(N2CCNCC2)c(NC2COC2)nn1 [I-128, 2-[6-(oxetan-3-ylamino)-5-piperazin-1-yl-pyridazin-3-yl]phenol]
Second: Oc1ccccc1-c1cc2c(nn1)NCC1CNCCN21 (centres unmarked) [I-120, 2-(6,6a,7,8,9,10-hexahydro-5H-pyrazino[1′,2′:4,5]pyrazino[2,3-c]pyridazin-2-yl)phenol 2,2,2-trifluoroacetate]
The IC50 of the first is higher: 51 to 200 µM for the first, 1 to 50 µM for the second. The second is the more potent here.

`Nc1ncc(N2C(=O)CCC2=O)cc1N1CCNCC1` [I-70, 1-(6-amino-5-(piperazin-1-yl)pyridin-3-yl)pyrrolidine-2,5-dione] and `Nc1ncc2c(Cl)cccc2c1N1CCNCC1` [I-74, 8-chloro-4-(piperazin-1-yl)isoquinolin-3-amine] cannot be ordered by IC50: > 200 µM for the first, > 200 µM for the second.

First: Oc1ccccc1-c1cc2c(nn1)NC[C@@H]1CN(c3ncccn3)CCN21 [I-106, (R)-2-(8-(pyrimidin-2-yl)-6,6a,7,8,9,10-hexahydro-5H-pyrazino[1′,2′:4,5]pyrazino[2,3-c]pyridazin-2-yl)phenol]
Second: Oc1ccccc1-c1cc2c(nn1)NC[C@H]1CNCCN21 [I-108, (R)-2-(6,6a,7,8,9,10-hexahydro-5H-pyrazino[1′,2′:4,5]pyrazino[2,3-c]pyridazin-2-yl)phenol]
The IC50 of the first is lower: < 1 µM for the first, 1 to 50 µM for the second.

Compared with `Oc1ccccc1-c1ccc(NC2CCNCC2)nn1` [I-127, 2-[6-(4-piperidylamino)pyridazin-3-yl]phenol], `Oc1ccccc1-c1cc2c(nn1)[nH]c1ccc(C3CCNCC3)cc12` [I-114, 2-(6-(piperidin-4-yl)-9H-pyridazino[3,4-b]indol-3-yl)phenol] is lower in IC50: 1 to 50 µM for the first, < 1 µM for the second.

`C[C@H]1NCCc2[nH]c3nnc(-c4ccccc4O)cc3c21` [I-115, (R)-2-(5-methyl-6,7,8,9-tetrahydro-5H-pyrido[3′,4′:4,5]pyrrolo[2,3-c]pyridazin-3-yl)phenol] and `C[C@@H]1NCCc2[nH]c3nnc(-c4ccccc4O)cc3c21` [I-117] fall in the same range of IC50: 51 to 200 µM for the first, 51 to 200 µM for the second.

`CC(=O)Nc1cnc(N)c(-c2cnn(C)c2)c1C` [I-129, N-[6-amino-4-methyl-5-(1-methylpyrazol-4-yl)-3-pyridyl]acetamide] and `CC(=O)n1ncc2c(-c3cnn(C)c3)c(N)ncc21` [I-126, 1-[5-amino-4-(1-methylpyrazol-4-yl)pyrazolo[3,4-c]pyridine-1-yl]ethanone] cannot be ordered by IC50: > 200 µM for the first, > 200 µM for the second.
